{
  "source": "patent US20070010484A1",
  "about": "“Method for treating or inhibiting the effects of injuries or diseases that result in neuronal degeneration and method for promoting neurogenesis” (YEDA RESEARCH AND DEVELOPMENT CO. LTD., priority 2003, published 2007)",
  "key": {"[1]": {"tested_on": "PC12 cells", "experiment": "LPA-induced neurite retraction in differentiated PC12 cells", "type": "cell-based, rat", "experimental": "PC12 cell line: Rat pheochromocytoma (PC12) cells were cultured in DMEM containing 8% horse serum and either 8% FCS (culture medium) or 1% FCS (differentiation medium), and antibiotics. For assays of neurite outgrowth, the cells were plated (10^5 cell/well) on 13-mm glass coverslips, precoated with collagen (500 μg/ml) in 24-well plates. Treatment of PC12 cells with lysophosphatidic acid (LPA). PC12 cells were placed and were differentiated for 3 days in the presence of 100 ng/ml NGF, in collagen-precoated culture dishes (Corning). […] The cells were then fixed with 4% paraformaldehyde (PFA) and analyzed by Nomarski microscopy. The longest neurite of each cell was measured and the results are expressed as their mean±SEM."}, "[2]": {"tested_on": "retinal ganglion cells (RGCs)", "experimental": "Glutamate-induced toxicity: C57Bl/6J mice were anesthetized by intraperitoneal (i.p.) injection of ketamine (80 mg/kg; Fort Dodge Laboratories, Fort Dodge, Iowa) and xylazine (16 mg/kg; Vitamed, Israel). Their right eyes were punctured with a 27 gauge needle in the upper part of the sclera and a hamilton syringe with a 30-gauge needle was inserted as far as the vitreal body. Each mouse was injected with a total volume of 1 μl saline containing L-glutamate (100 nmol). Mice in one group were also injected intravenously (i.v.) with 5 μg of CSPG-DSs in 200 μl saline (Schori, 2001).\nLabeling of retinal ganglion cells: Mice were anesthetized as described above and placed in a stereotactic device. The skull was exposed and the bregma identified and marked. […] A window was drilled in the scalp above the designated coordinates in the right and left hemispheres. […]\nAssessment of retinal ganglion cell survival: Retinas were examined for labeled retinal ganglion cells (RGCs) by fluorescence microscopy. Labeled cells from four to six fields of identical size (0.076 mm^2) were counted. […] Cells were counted under the fluorescence microscope (magnification ×800) by observers blinded to the treatment received by the mice. The average number of RGCs per field was calculated for each retina. The number of RGCs in the contralateral (uninjured) eye was also counted and served as an internal control."}, "[3]": {"tested_on": "retinal ganglion cells (RGCs)", "experiment": "Experimental autoimmune uveitis (EAU), RGC survival", "type": "in vivo", "conditions": "R16-immunized Lewis rats, i.p. on days 3, 6, 9, 12 and 17; counted 3 weeks after immunization; mean±SD", "experimental": "Induction of experimental autoimmune uveitis. To induce experimental autoimmune uveitis (EAU), Lewis rats were immunized with R16 (30 μg), a peptide derived from an ocular antigen IRBP emulsified in CFA containing 2.5 mg/ml M. tuberculosis. A total volume of 100 μl was injected s.c. into each rat at the root of the tail. Rats were then divided into three groups. On days 3, 6, 9, 12 and 17 after immunization the rats in the first group were injected i.p. with CSPG-DS (15 μg/rat), and rats in the second group were injected i.p. with methylprednisolone (MP. 30 mg/kg; Solu-Medrol, 125 mg/ml, Pharmacia & Upjohn, Puurs, Belgium). Rats in third group were left untreated."}, "[4]": {"tested_on": "IL-4 and IL-13", "experiment": "RT-PCR of IL-4 and IL-13 mRNA in activated T cells", "type": "cell-based, human", "conditions": "2 h pretreatment, anti-CD3 activation 3 h; similar after 6 or 12 h", "experimental": "RNA purification, RT-PCR, and CDNA synthesis. After pretreatment with the indicated concentrations of CSPG-DS for 2 h, […], lysed with TRI reagent (MRC, Cincinnati, Ohio), and total cellular RNA was purified from lysates using the RNeasy kit (Qiagen, Hilden, Germany) according to the manufacturer's instructions. RNA was converted to cDNA using SuperScript II (Promega, Madison, Wis.), as recommended by the manufacturer. The expression of specific mRNAs was assayed by RT-PCR, using the messageScreen™ Human Th1/Th2 Cytokine Set 1 Multiplex PCR® kits (BioSource International, Camarillo, Calif.), according to the manufacturer's instructions."}, "[5]": {"tested_on": "retinal ganglion cells (RGCs)", "experiment": "Chronically high intra-ocular pressure (laser-induced glaucoma) rat model, RGC survival", "type": "in vivo, Lewis rats", "conditions": "chronic IOP rats", "text": "Induction of chronically high intra-ocular pressure: Blockage of aqueous outflow causes an increase in IOP, which results in RGC death (Schori et al., 2001 and Bakalash et al., 2002). […] The laser beam, which was directed at three of the four episcleral veins and at 270 degrees of the limbal plexus, was applied with a power of 1 watt for 0.2 s, producing a spot size of […] at the episcleral veins and […] at the limbal plexus. At a second laser session 1 week later, the same parameters were used except that the spot size was […] for all applications, this time the radiation was directed towards all four episcleral veins and 360 degrees of the limbal plexus (Schori et al., 2001).\nAnatomical assessment of retinal damage caused by the increase in IOP: The hydrophilic neurotracer dye dextran tetramethylrhodamine (Rhodamine Dextran) (Molecular Probes, Oreg., USA) was applied directly into the intra-orbital portion of the optic nerve. […] RGCs were counted under magnification of ×800 in a Zeiss fluorescent microscope. Four fields from each retina were counted, all with the same diameter (0.076 mm^2) and located at the same distance from the optic disc (Kipnis et al., 2001; and Yoles et al., 2001). […] RGCs were counted by an observer who was blinded to the identity of the retinas. […]"}, "[6]": {"conditions": "PC12 cells with LPA plus CSPG-DSs"}},
  "note": "“Also recorded” adds a separate entry of the source.",
  "data": [
    {"smiles": "CC(=O)N[C@H]1C(O)O[C@H](COS(=O)(=O)O)[C@H](O)[C@@H]1O[C@@H]1OC(C(=O)O)=C[C@H](O)[C@H]1O", "note": "(stereo partly drawn) [CSPG-DS, 2-acetoamido-2-deoxy-3-O-(β-D-gluco-4-enepyranosyluronic acid)-6-O-sulfo-D-galactose]", "values": [
      {"measurement": "LPA-induced neurite collapse / retraction", "setting": "[1]; NGF-differentiated PC12 cells, LPA 1 μg/ml 20 min together with CSPG-DSs (5 or 50 μg/ml)", "value": "dose-dependent reversal of the retraction process; also recorded: prevented"},
      {"measurement": "mean neurite length", "setting": "[1]; [6]", "value": "beneficial effect"},
      {"measurement": "number of neurite-bearing cells", "setting": "[1]; [6]", "value": "beneficial effect"},
      {"measurement": "neuronal survival in the absence of glutamate", "setting": "[2]; intravitreal injection of CSPG-DSs, no glutamate", "value": "no effect"},
      {"measurement": "number of surviving RGCs per mm2", "setting": "[2]; mice, intravitreal toxic glutamate, single i.v. injection of sulfated CSPG-DSs (5 μg), assessed 1 week later, mean±SEM", "value": "1965±166", "unit": "per mm2"},
      {"measurement": "RGC loss relative to normal rats", "setting": "[3]", "value": "24±9", "unit": "%"},
      {"measurement": "mRNA levels of Th2-associated cytokines IL-4 and IL-13", "setting": "[4]", "value": "not affected"},
      {"measurement": "viable RGCs per mm^2", "setting": "[5]; eye drops 20 μg/ml (5 x 50 μl), every other day between day 7 and day 14, counted at three weeks, n=6", "value": "1924±191", "unit": "RGCs per mm^2"},
      {"measurement": "viable RGCs per mm^2", "setting": "[5]; intravenous, every other day between day 7 and day 14 after first laser session, n=5", "value": "2063±215", "unit": "RGCs per mm^2"}
    ]}
  ]
}
